Patent US6822100B2 (Bristol-Myers Squibb Company, priority 2001, dated 2004)
Structures can show the parent of a compound that is named as a salt.

The molecules below were run against T1, human serotonin transporters (Homo sapiens, UniProt P31645) (assay: Serotonin Transporter Binding Assay). Details: HEK-hSERT cell membranes, 1 nM [3H]-citalopram, Cheng and Prusoff; read-out: SERT Ki.
T1 construct: expressed in transfected cells; host or cells: HEK-293 (HEK-hSERT), membrane homogenates
Protocol: HEK-293 cells that stably express human serotonin transporters (HEK-hSERT cells) were grown at 37° C. in 5% CO2 as a monolayer in medium consisting of EMEM supplemented with 10% fetal bovine serum and G418 sulfate (500 μg/ml). To prepare membranes for radioligand binding experiments, cells were rinsed twice with phosphate-buffered saline (138 mM NaCl, 4.1 mM KCl, 5.1 mM Na2PO4, 1.5 mM […], 11.1 mM glucose, pH 7.4). Cells were transferred from plates to polypropylene tubes (16×100 mm), centrifuged at 1,200×g for 5 min and were frozen at −80° C. until assay. Following centrifugation, pellets were resuspended by homogenization in buffer consisting of 50 mM Tris (pH 7.7 at 25° C.), 120 mM NaCl and 5 mM KCl and then centrifuged at 32,000×g for 10 min. Following centrifugation, supernatants were discarded and pellets were resuspended in buffer consisting of 50 mM Tris (pH 7.4 at 25° C.), 150 mM NaCl and 5 mM KCl. Membrane homogenates (200 μl/plate) were incubated with 1 nM [^3H]-citalopram (specific activity=85 Ci/mmol) and increasing concentrations of test compounds for 1 hr at 25° C. in a total volume of 250 μl. The assay buffer consisted of 50 mM Tris (pH 7.4 at 25° C.), 120 mM NaCl and 5 mM KCl (pH 7.4 with conc. HCl). Plates were incubated for 1 hr at 25° C., then filtered through 0.5% PEI treated Whatman GF/B filters using a Brandel cell harvester. Filters were washed three times with 3 ml of ice-cold tris wash buffer. Non-specific binding was defined with 10 μM fluoxetine. Amount of radioligand bound in the presence and absence of competitor was analyzed by plotting (−)log drug concentration versus the amount of radioligand specifically bound. The midpoint of the displacement curve (IC50, nM), signifies the potency. Ki values were calculated using the method of Cheng and Prusoff (1973).

T1 sequence (P31645 whole entry): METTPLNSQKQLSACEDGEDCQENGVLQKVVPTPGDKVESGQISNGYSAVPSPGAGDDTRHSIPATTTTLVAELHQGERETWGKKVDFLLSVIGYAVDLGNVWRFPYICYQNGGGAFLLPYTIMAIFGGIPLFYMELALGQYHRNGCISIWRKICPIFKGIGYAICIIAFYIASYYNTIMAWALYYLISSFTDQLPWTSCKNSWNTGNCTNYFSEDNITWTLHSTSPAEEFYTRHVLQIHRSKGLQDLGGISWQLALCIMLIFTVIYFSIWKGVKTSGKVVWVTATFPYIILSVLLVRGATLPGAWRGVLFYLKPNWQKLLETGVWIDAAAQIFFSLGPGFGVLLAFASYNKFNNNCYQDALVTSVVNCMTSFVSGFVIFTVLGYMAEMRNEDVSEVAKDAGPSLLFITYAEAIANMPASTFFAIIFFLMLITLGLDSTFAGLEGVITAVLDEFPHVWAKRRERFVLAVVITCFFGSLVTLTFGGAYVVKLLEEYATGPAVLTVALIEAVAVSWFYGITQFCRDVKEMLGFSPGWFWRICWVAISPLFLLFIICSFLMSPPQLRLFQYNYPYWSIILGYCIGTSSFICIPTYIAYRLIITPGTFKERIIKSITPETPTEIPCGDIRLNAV

| SMILES | Ki [nM] |
| --- | --- |
| CN(C)CC1CC1c1ccc2cc[nH]c2c1 (stereo not drawn) [Example 191, [2-(1H-Indol-6-yl)-cyclopropylmethyl]-dimethyl-amine] | 10 to 100 |
| CCn1cc([C@H]2C[C@@H]2CN(C)C)c2cc(C#N)ccc21 [Example 189] | 1 to 10 |
| CNC[C@H]1C[C@@H]1c1c[nH]c2ccc(C(F)(F)F)cc12 (racemic) [Example 154, Methyl-[2-(5-trifluoromethyl-1H-indol-3-yl)-cyclopropylmethyl]-amine] | 10 to 100 |
| CCN(C)C[C@H]1C[C@@H]1c1c[nH]c2cc(C#N)ccc12 (racemic) [Example 161, 3-{2-[(Ethyl-methyl-amino)-methyl]-cyclopropyl}-1H-indole-6-carbonitrile] | 100 to 1000 |
| CN(C)C[C@H]1C[C@@H]1c1cn(C)c2ccc(C#N)cc12 [Example 188] | 1 to 10 |
| CCN(CC)CC1CC1c1csc2ccccc12 (stereo not drawn) [Example 171, (2-Benzo[b]thiophen-3-yl-cyclopropylmethyl)-diethyl-amine] | 100 to 1000 |
| CN(C)CC1CC1c1ccc2[nH]cc(C#N)c2c1 (stereo not drawn) [Example 151, 5-(2-Dimethylaminomethyl-cyclopropyl)-1H-indole-3-carbonitrile] | 1 to 10 |
| C[N+](C)(C)C[C@H]1C[C@@H]1c1c[nH]c2ccc(C#N)cc12 [Example 187, S,S-Trans-2-[5-Cyanoindol-3-yl]-1-(trimethylammoniummethyl)cyclopropane trifluoroacetate] | < 1 |
| CN(Cc1ccccc1)C[C@H]1C[C@@H]1c1c[nH]c2cc(C(F)(F)F)ccc12 (racemic) [Example 157, Benzyl-methyl-[2-(6-trifluoromethyl-1H-indol-3-yl)-cyclopropylmethyl]-amine] | 100 to 1000 |
| CN(C)CC1CC1c1csc2ccccc12 (single isomer, unassigned; (-)) [Example 190A, (−)-(2-Benzo[b]thiophen-3-yl-cyclopropylmethyl)-dimethyl-amine] | 100 to 1000 |
| CNCC1CC1c1csc2ccccc12 (stereo not drawn) [Example 168, (2-Benzo[b]thiophen-3-yl-cyclopropylmethyl)-methyl-amine] | 10 to 100 |
| CCN(C)CC1CC1c1n[nH]c2ccc(C#N)cc12 (stereo not drawn) [Example 164, 3-{2-[(Ethyl-methyl-amino)-methyl]-cyclopropyl}-1H-indazole-5-carbonitrile] | 100 to 1000 |
| c1ccc2c(C3CC3CN3CCCC3)csc2c1 (stereo not drawn) [Example 172, 1-(2-Benzo[b]thiophen-3-yl-cyclopropylmethyl)-pyrrolidine] | 100 to 1000 |
| CCNC[C@H]1C[C@@H]1c1c[nH]c2cc(C#N)ccc12 (racemic) [Example 159, 3-(2-Ethylaminomethyl-cyclopropyl)-1H-indole-6-carbonitrile] | 100 to 1000 |
| CCN(C)CC1CC1c1csc2ccccc12 (stereo not drawn) [Example 170, (2-Benzo[b]thiophen-3-yl-cyclopropylmethyl)-ethyl-methyl-amine] | 100 to 1000 |
| CN(C)CC1CC1c1ccc2c(C#N)c[nH]c2c1 (stereo not drawn) [Example 192, 6-(2-Dimethylaminomethyl-cyclopropyl)-1H-indole-3-carbonitrile] | 1 to 10 |
| N#Cc1ccc2[nH]nc(C3CC3CN3CCCC3)c2c1 (stereo not drawn) [Example 166, 3-(2-Pyrrolidin-1-ylmethyl-cyclopropyl)-1H-indazole-5-carbonitrile] | 100 to 1000 |
| CN(C)CC1CC1c1ccc2[nH]cc(Br)c2c1 (stereo not drawn) [Example 150, N,N-dimethyl-2-(3-bromoindol-5-yl)cycloprop-1-yl methylamine] | 10 to 100 |
| CN(C)CCC1CC1c1c[nH]c2ccc(C#N)cc12 (stereo not drawn) [Example 193, 3-[2-(2-Dimethylamino-ethyl)-cyclopropyl]-1H-indole-5-carbonitrile] | 1 to 10 |
| CCNC[C@H]1C[C@@H]1c1c[nH]c2cc(C(F)(F)F)ccc12 (racemic) [Example 156, Ethyl-[2-(6-trifluoromethyl-1H-indol-3-yl)-cyclopropylmethyl]-amine] | 100 to 1000 |
| CCN(CC)CCCC1CC1c1c[nH]c2ccc(C#N)cc12 (stereo not drawn) [Example 177, Trans-2-[5-cyanoindol-3-yl]1-(3-(N,N-diethylamino)propyl)cyclopropane] | 10 to 100 |
